Laboratory results reported in article PMC11094307, “Marine-derived EGFR inhibitors: novel compounds targeting breast cancer growth and drug resistance” (Frontiers in Pharmacology, 2024).

Tests used:
A549 cells = experiment: MTT assay, A549; assay type: cell-based, human; conditions: A549 (high EGFR-expressing), 10 μM
Method: (§1) The cell lines MCF-7 and A431 were cultured in Dulbecco’s Modified Eagle’s Medium (DMEM, Gibco, USA), while HL-60, H1299, and A549 cells were maintained in RPMI-1640 medium (Gibco, USA). Both mediums were enriched with 10% fetal bovine serum and 1% penicillin/streptomycin. […] All cell cultures were incubated at 37°C in an atmosphere containing 5% CO2.
(§2) Cells in the exponential growth phase were seeded into 96-well plates and allowed to adhere overnight. Subsequently, they were treated in triplicate with various concentrations of the compounds (0, 1.56, 3.13, 6.25, 12.5, 25, 50, 100 µM), […]. After 24 h, 20 µL of Methyl-thiazolyldiphenyl-tetrazolium bromide (MTT, 5 mg/mL, Thermo Fisher Scientific) was added to each well and incubated for a minimum of 4 h. Following the incubation, the medium containing the compounds and MTT was removed from each well, and 200 µL of dimethyl sulfoxide (DMSO) was added. The plates were then shaken for 10 min at 37°C to dissolve the formazan crystals. The absorbance was measured using a microplate reader (BioTek Synergy 4) at a wavelength of 490 nm.

H1299 cells = experiment: MTT assay, H1299; assay type: cell-based, human; conditions: H1299 (high EGFR-expressing), 10 μM
Method: as §1, §2

MCF-10A cells = experiment: MTT assay, MCF-10A; assay type: cell-based, human; conditions: MCF-10A (non-tumorigenic epithelial), 10 μM
Method: as §1, §2

MCF-7 cells = experiment: Annexin V-FITC/PI apoptosis analysis; assay type: cell-based, human; conditions: 24 h
Method: Apoptosis was evaluated using the Annexin V-FITC/PI Apoptosis Detection Kit (Vazyme). The harvested MCF-7 cells were first resuspended in 1× binding buffer from the kit to achieve a final concentration of 1×10^6 cells/ml. Next, 100 μL of the cell suspension, 5 μL of Annexin V, and 10 μL of PI were mixed and incubated in the dark for 15 min. Subsequently, 400 μL of 1× binding buffer was added to the mixture in preparation for apoptosis analysis.

Cleaved Caspase-3 = experiment: Western blotting of MCF-7 lysates, cleaved caspase-3; assay type: cell-based, human; conditions: for Cleaved Caspase-3 WB Normalized: control 0 µM 0.213235397
Method: MCF-7 cell lysates were prepared by rinsing the cells twice with PBS and then solubilizing them in lysis buffer (NP40 supplemented with protease and phosphatase inhibitor cocktails) on ice. The solubilization process involved rotating the lysis buffer/cell mixture end over end for 10 min at 4°C. After centrifugation for 10 min at 4°C to remove insoluble material, the protein concentration of the solubilized protein was determined using a BCA assay. Subsequently, samples were diluted in SDS sample buffer. Equivalent amounts of protein were separated by SDS-PAGE, transferred to PVDF membranes, and probed with the indicated antibody. Prior to incubation with primary antibodies overnight at 4°C, the membranes were blocked with 5% skim milk-TBST. The antibodies and their sources were as follows: PARP1 (1:500, Santa Cruz Biotechnology), Cleaved Caspase-3 (1:1000, Cell Signaling Technology), BAX (1:500, Santa Cruz Biotechnology), BCL-2 (1:500, Santa Cruz Biotechnology), and GAPDH (1:500, Santa Cruz Biotechnology). Following incubation with horseradish peroxidase-conjugated goat anti-mouse or goat anti-rabbit secondary antibody (Santa Cruz Biotechnology), the detected proteins were visualized using the Pierce Enhanced Chemiluminescence (ECL) reagent and a UV Products imaging system. Band intensities were quantified using the National Institutes of Health ImageJ software.

ABL = ABL (Homo sapiens, UniProt P00519); experiment: Kinase profiling; assay type: biochemical; conditions: one of the other seven tyrosine kinases
Method: (§3) The experiments were conducted in accordance with the manufacturer’s guidelines (Promega). The procedure began with a kinase reaction, where 5 μL of 1× kinase buffer was utilized, and the mixture was incubated at room temperature for 60 min. This step was followed by the addition of 5 μL of ADP-Glo™ reagent to terminate the kinase reaction and to deplete any remaining ATP, with a subsequent incubation period of 40 min at room temperature. Next, 10 μL of kinase detection reagent was added to convert ADP back into ATP, and luciferase along with luciferin was introduced to facilitate ATP detection. This mixture was then incubated at room temperature for an additional 30 min. Detection was carried out using a BioTek Synergy4 instrument, and data analysis, including curve fitting and presentation, was performed using GraphPad Prism version 5.0.

ECK = ECK (Homo sapiens, UniProt P29317); experiment: Kinase profiling; assay type: biochemical; conditions: one of the other seven tyrosine kinases
Method: as §3

FAK = FAK (Homo sapiens, UniProt Q05397); experiment: Kinase profiling; assay type: biochemical; conditions: one of the other seven tyrosine kinases
Method: as §3

FGFR1 = FGFR1 (Homo sapiens, UniProt P11362); experiment: Kinase profiling; assay type: biochemical; conditions: one of the other seven tyrosine kinases
Method: as §3

FGFR3 = FGFR3 (Homo sapiens, UniProt P22607); experiment: Kinase profiling; assay type: biochemical; conditions: one of the other seven tyrosine kinases
Method: as §3

FLT1 = FLT1 (Homo sapiens, UniProt P17948); experiment: Kinase profiling; assay type: biochemical; conditions: one of the other seven tyrosine kinases
Method: as §3

[1] = target: T1, EGFR extracellular ligand binding domain (Homo sapiens, UniProt P00533); experiment: SPR binding (Biacore 8K)
T1 construct: His; purchased Sinobiological, China
From the text: The extracellular ligand-binding domain of EGFR, tagged with His, and the intracellular tyrosine kinase (TK) domain of EGFR, tagged with GST, were acquired from Sinobiological, China. Kinase assay systems for both wild-type EGFR and its mutants—T790M, L858R, and the dual L858R/T790M—were procured from Promega Corporation, USA. Cell lines including MCF-7, A549, A431, H1299, HL-60, and MCF-10A were obtained from the China Infrastructure Cell Line Resources.
The binding affinities of compounds towards EGFR extracellular ligand binding domain and EGFR intracellular kinase domain were assayed using the SPR-based Biacore 8K instrument (Cytiva). Considering the purchased EGFR was fused with GST tag, GST alone was also immobilized on the chip to do the binding measurement. All the proteins were respectively immobilized on a CM5 sensor chip by using standard amine-coupling at 25°C with running buffer HEPES-P (20 mM HEPES buffer, […], 0.05% surfactant P20, pH 7.4). A reference channel was only activated and blocked to eliminate compound unspecific binding to the surface of the chip. The immobilization level of EGFR extracellular ligand binding domain, EGFR intracellular kinase domain and GST were all about 10,000 RU. […] Extra wash with 50% DMSO was added to remove the last remaining sample in the pipeline.

T1 sequence (P00533 25-645 limits assumed): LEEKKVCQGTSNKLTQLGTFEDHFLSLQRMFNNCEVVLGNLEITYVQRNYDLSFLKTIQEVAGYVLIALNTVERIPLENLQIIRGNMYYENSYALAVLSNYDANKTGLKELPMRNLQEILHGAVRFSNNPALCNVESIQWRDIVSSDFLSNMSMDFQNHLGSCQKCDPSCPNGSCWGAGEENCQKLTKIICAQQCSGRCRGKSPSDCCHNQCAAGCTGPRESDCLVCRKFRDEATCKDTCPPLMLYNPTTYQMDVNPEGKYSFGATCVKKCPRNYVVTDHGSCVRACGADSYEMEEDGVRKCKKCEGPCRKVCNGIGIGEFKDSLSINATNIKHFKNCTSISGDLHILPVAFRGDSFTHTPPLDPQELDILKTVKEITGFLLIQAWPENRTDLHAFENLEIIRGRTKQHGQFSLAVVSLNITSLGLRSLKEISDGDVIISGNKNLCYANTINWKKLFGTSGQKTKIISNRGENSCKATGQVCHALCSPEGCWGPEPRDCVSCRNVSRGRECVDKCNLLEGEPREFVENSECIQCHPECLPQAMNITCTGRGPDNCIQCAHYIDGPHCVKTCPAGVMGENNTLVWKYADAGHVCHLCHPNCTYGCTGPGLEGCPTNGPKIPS
Sequence of FGFR3 (P22607 23-806): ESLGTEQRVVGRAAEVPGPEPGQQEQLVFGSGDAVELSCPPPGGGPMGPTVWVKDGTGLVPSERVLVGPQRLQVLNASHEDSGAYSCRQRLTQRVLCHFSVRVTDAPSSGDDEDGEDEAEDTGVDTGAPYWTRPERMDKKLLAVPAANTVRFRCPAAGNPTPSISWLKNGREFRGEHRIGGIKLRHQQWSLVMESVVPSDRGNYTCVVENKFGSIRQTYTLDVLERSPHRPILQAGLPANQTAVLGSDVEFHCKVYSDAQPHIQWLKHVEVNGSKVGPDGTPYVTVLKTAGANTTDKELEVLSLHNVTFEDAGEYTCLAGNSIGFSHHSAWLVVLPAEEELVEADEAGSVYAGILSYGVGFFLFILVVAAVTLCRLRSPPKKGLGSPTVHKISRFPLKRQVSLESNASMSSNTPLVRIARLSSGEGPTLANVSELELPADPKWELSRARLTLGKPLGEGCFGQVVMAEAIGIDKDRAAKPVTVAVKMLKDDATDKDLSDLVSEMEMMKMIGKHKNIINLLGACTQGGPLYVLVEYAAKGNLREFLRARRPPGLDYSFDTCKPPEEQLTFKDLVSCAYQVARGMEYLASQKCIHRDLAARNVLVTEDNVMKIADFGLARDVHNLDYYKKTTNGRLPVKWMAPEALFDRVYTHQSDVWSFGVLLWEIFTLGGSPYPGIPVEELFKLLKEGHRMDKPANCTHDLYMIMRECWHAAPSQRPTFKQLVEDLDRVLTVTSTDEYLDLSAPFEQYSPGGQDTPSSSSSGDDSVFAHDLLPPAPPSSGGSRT
Sequence of FGFR1 (P11362 22-822): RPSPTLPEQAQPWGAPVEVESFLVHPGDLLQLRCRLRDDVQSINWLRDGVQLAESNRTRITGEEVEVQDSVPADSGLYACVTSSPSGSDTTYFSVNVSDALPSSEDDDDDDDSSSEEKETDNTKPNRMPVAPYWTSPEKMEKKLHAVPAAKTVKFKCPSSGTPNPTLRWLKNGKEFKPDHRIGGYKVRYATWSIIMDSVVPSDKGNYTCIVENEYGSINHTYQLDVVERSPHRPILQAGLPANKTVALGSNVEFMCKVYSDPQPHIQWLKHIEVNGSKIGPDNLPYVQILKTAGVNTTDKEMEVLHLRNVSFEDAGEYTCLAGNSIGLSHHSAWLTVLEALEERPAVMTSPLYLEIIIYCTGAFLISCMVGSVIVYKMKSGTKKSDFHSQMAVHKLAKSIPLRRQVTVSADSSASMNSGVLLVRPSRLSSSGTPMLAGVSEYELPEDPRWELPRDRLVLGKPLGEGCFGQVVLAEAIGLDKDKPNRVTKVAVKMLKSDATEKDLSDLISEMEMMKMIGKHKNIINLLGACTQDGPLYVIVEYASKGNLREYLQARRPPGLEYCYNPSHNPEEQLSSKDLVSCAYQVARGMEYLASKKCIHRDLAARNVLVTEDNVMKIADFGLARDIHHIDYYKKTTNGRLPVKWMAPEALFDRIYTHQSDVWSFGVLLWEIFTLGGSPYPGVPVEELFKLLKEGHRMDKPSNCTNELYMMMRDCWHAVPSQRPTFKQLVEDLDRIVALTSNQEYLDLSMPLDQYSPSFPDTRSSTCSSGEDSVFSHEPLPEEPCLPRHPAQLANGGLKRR
Sequence of FLT1 (P17948 27-1338): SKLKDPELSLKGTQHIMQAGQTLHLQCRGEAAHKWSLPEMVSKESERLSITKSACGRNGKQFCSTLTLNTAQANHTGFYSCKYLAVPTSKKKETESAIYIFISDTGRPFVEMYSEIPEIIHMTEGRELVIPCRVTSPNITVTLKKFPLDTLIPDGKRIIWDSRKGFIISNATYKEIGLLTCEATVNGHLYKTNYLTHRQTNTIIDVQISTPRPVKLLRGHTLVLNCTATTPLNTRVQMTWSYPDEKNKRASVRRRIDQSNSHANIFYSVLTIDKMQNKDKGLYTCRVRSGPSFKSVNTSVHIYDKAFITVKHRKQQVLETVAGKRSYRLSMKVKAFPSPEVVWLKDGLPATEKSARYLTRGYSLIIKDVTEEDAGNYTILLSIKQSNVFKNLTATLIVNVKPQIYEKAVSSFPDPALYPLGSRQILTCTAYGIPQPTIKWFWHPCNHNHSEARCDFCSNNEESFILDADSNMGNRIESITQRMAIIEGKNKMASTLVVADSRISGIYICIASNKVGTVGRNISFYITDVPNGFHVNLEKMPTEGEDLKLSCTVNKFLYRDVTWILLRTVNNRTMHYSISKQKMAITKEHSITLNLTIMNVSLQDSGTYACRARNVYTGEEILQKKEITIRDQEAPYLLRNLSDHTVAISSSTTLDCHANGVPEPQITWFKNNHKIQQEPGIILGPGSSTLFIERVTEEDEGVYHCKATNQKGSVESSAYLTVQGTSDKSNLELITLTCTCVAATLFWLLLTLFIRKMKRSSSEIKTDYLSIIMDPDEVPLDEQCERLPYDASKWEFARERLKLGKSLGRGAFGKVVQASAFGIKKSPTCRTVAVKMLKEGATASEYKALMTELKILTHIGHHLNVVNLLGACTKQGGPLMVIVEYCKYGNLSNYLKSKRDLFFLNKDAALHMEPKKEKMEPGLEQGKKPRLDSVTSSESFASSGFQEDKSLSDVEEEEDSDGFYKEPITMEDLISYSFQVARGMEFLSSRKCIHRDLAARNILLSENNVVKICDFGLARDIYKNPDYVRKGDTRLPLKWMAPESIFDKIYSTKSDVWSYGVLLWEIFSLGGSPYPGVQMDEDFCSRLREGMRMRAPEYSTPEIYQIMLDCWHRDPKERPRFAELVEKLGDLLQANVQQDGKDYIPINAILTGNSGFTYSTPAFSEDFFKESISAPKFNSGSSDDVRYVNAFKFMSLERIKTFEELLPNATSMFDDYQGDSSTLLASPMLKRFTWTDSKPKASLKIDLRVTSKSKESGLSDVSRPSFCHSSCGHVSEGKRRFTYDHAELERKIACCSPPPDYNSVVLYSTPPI
Sequence of ECK (P29317 24-976): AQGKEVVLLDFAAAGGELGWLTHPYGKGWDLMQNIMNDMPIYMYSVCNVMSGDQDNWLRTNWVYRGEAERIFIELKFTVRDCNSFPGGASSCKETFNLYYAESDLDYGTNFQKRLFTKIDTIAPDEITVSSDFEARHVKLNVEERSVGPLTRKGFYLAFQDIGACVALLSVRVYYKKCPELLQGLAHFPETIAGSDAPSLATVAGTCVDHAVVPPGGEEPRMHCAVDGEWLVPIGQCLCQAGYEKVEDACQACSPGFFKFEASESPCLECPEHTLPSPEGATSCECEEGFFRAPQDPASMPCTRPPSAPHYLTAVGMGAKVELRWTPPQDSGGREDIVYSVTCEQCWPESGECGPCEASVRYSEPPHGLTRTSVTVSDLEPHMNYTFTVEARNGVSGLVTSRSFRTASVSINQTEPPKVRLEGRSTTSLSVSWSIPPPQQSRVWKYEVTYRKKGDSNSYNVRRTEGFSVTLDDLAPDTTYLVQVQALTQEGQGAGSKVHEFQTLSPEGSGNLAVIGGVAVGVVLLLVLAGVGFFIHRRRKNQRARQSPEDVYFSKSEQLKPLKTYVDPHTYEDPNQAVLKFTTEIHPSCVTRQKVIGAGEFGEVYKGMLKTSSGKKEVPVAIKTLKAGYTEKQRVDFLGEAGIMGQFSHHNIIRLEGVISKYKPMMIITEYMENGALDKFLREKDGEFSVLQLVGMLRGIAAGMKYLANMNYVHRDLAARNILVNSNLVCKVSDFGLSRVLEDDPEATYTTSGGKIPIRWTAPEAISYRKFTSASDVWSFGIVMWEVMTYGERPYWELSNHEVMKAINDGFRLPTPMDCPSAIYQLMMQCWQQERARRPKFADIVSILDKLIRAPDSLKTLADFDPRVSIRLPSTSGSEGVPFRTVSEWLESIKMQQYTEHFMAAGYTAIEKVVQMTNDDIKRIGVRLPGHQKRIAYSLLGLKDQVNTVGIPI

In the case of `COC(=O)C/C(C)=C/C(=O)O[C@@H]1C[C@@H](C)[C@H]2[C@@H](C=C[C@H](CC(C)C)[C@]2(C)C(=O)/C=C\O)[C@@H]1O` [Tandyukisin], the cell lethality percentage (A549 cells) is reported as 72.1% ± 1.8%, the cell lethality percentage (H1299 cells) is reported as 60.3% ± 3.9% and the cell lethality percentage (MCF-10A cells) is reported as 8.9% ± 1.5%. For the same compound, the “apoptosis ratio (lower right quadrant, early apoptosis: PI negative, annexin V-FITC positive)” value (MCF-7 cells; 5 μM) was 12.10%, the “apoptosis ratio (lower right quadrant, early apoptosis: PI negative, annexin V-FITC positive)” value (MCF-7 cells; 10 μM) was 14.37% and the “apoptosis ratio (lower right quadrant, early apoptosis: PI negative, annexin V-FITC positive)” value (MCF-7 cells; 20 μM) was 19.24%. For the same compound, the “Cleaved Caspase-3 WB Gray Value” (Cleaved Caspase-3; 5 µM) was 17172.004, the “Cleaved Caspase-3 WB Normalized” value (Cleaved Caspase-3; 5 µM) was 0.3916 and the “Cleaved Caspase-3 WB Gray Value” (Cleaved Caspase-3; 10 µM) was 22734.418. For the same compound, the “Cleaved Caspase-3 WB Normalized” value (Cleaved Caspase-3; 10 µM) was 0.5222, the “Cleaved Caspase-3 WB Gray Value” (Cleaved Caspase-3; 20 µM) was 173083.238 and the “Cleaved Caspase-3 WB Normalized” value (Cleaved Caspase-3; 20 µM) was 5.061. The “expression level of cleaved caspase-3 protein” value (Cleaved Caspase-3; MCF-7, upon treatment) was “increased”, the IC50 (ABL) was greater than 100 µM and the IC50 (ECK) was greater than 100 µM. For the same compound, the IC50 (FAK) was greater than 100 µM, the IC50 (FGFR1) was greater than 100 µM and the IC50 (FGFR3) was greater than 100 µM. For the same compound, the IC50 (FLT1) was greater than 100 µM, the Kd [1] was 101 µM and the kon ([1]; Figure 4C-D, read-out: ka, EGFR ligand binding domain) was 109 M⁻¹ s⁻¹.
